Assay results as given in ChEMBL document CHEMBL1697692, “Developing structure-activity relationships for the prediction of hepatotoxicity” (Chem Res Toxicol, 2010).
Structures can show the parent of a compound that is named as a salt.

System: Hepatotoxicity
Assay: Literature-mined public compounds from Greene et al multi-species hepatotoxicity modelling dataset

SMILES	Hepatotoxicity
CCOc1nc2cccc(C(=O)O)c2n1Cc1ccc(-c2ccccc2-c2nnn[nH]2)cc1	WE: Weak evidence (<10 case reports) of human hepatotoxicity
CCCc1nc2c(C)cc(-c3nc4ccccc4n3C)cc2n1Cc1ccc(-c2ccccc2C(=O)O)cc1	WE: Weak evidence (<10 case reports) of human hepatotoxicity
CCCCC(=O)N(Cc1ccc(-c2ccccc2-c2nnn[nH]2)cc1)[C@H](C(=O)O)C(C)C	WE: Weak evidence (<10 case reports) of human hepatotoxicity
CC(C)(C)NCC(O)c1cc(O)cc(O)c1.O=S(=O)(O)O (stereo unspecified)	HH: Evidence of human hepatotoxicity
COc1cccc(OC)c1C(=O)N[C@@H]1C(=O)N2[C@@H]1SC(C)(C)[C@@H]2C(=O)[O-].[Na+]	HH: Evidence of human hepatotoxicity
CN[C@@H]1[C@H](O)[C@H](NC)[C@H]2O[C@@]3(O)C(=O)C[C@@H](C)O[C@H]3O[C@@H]2[C@H]1O.Cl	HH: Evidence of human hepatotoxicity
CCO.C[C@H]1c2cccc(O)c2C(=O)C2=C(O)[C@]3(O)C(=O)C(C(N)=O)=C(O)[C@@H](N(C)C)[C@@H]3[C@@H](O)[C@@H]21.Cl.O	HH: Evidence of human hepatotoxicity
Cl.NCCNCCNCCN	HH: Evidence of human hepatotoxicity
CCN(CC)CCNC(=O)c1cc(Cl)c(N)cc1OC.Cl	HH: Evidence of human hepatotoxicity
CNS(=O)(=O)Cc1ccc2[nH]cc(CCN(C)C)c2c1	NE: No evidence of hepatotoxicity in any species
CN(C)CCN(Cc1cccs1)c1ccccn1	HH: Evidence of human hepatotoxicity
Cl.Cl.OCCN1CCN(CC/C=C2/c3ccccc3Sc3ccc(C(F)(F)F)cc32)CC1	NE: No evidence of hepatotoxicity in any species
CCCCCOC(=O)c1ccccc1C(=O)OCCCCC	AH: Evidence for animal hepatotoxicity but not tested in humans
CC1=C(CC(=O)O)c2cc(F)ccc2/C1=C\c1ccc([S+](C)[O-])cc1 (stereo unspecified)	HH: Evidence of human hepatotoxicity
CCOC(=O)[C@H](CCc1ccccc1)N[C@@H](C)C(=O)N1Cc2ccccc2C[C@H]1C(=O)O	HH: Evidence of human hepatotoxicity
Cl.Nc1cc(Cl)cc(Cl)c1	NE: No evidence of hepatotoxicity in any species
NC(CS/C(Cl)=C/Cl)C(=O)O (stereo unspecified)	AH: Evidence for animal hepatotoxicity but not tested in humans
S=C=Nc1ccc2ccccc2c1	WE: Weak evidence (<10 case reports) of human hepatotoxicity
C=CC(O)CC#N (stereo unspecified)	NE: No evidence of hepatotoxicity in any species
Nc1cc(Cl)c(O)c(Cl)c1.Nc1ccc(O)cc1	AH: Evidence for animal hepatotoxicity but not tested in humans
CO/N=C(/C(=O)N[C@@H]1C(=O)N2C(C(=O)[O-])=C(CSc3nc(=O)c(O)nn3C)CS[C@H]12)c1csc(N)n1.[Na+]	HH: Evidence of human hepatotoxicity
O=C1NC(=O)C(O)(O)C(=O)N1	NE: No evidence of hepatotoxicity in any species
Oc1ccccc1Br	AH: Evidence for animal hepatotoxicity but not tested in humans
O=C(O)COc1ccc(C(=O)c2cccs2)c(Cl)c1Cl	HH: Evidence of human hepatotoxicity

SMILES	Hepatotoxicity
CCN(CC)Cc1cc(Nc2ccnc3cc(Cl)ccc23)ccc1O.Cl.Cl.Cl	HH: Evidence of human hepatotoxicity
N#CC(C#N)=NNc1ccc(OC(F)(F)F)cc1	AH: Evidence for animal hepatotoxicity but not tested in humans
O=C1NCN(c2ccccc2)C12CCN(CCCC(c1ccc(F)cc1)c1ccc(F)cc1)CC2	HH: Evidence of human hepatotoxicity
C[n+]1ccc(-c2cc[n+](C)cc2)cc1	AH: Evidence for animal hepatotoxicity but not tested in humans
Nc1ccc(Cc2ccc(N)cc2)cc1	AH: Evidence for animal hepatotoxicity but not tested in humans
C=C1CC[C@@]2(O)[C@H]3Cc4ccc(O)c5c4[C@@]2(CCN3CC2CC2)[C@H]1O5	NE: No evidence of hepatotoxicity in any species
CCSCC[C@H](N)C(=O)O (stereo in doubt; form 1) [ETHIONINE]	HH: Evidence of human hepatotoxicity
Cl[C@H]1[C@H](Cl)[C@@H](Cl)[C@@H](Cl)[C@H](Cl)[C@H]1Cl (stereo in doubt; form 1) [LINDANE]	NE: No evidence of hepatotoxicity in any species
C[C@H](CCC(=O)O)[C@H]1CC[C@H]2[C@@H]3[C@@H](O)C[C@@H]4C[C@H](O)CC[C@]4(C)[C@H]3CC[C@]12C (stereo in doubt; form 1) [URSODIOL]	HH: Evidence of human hepatotoxicity
CCSCC[C@H](N)C(=O)O (stereo in doubt; form 2) [ETHIONINE]	AH: Evidence for animal hepatotoxicity but not tested in humans
Cl[C@H]1[C@H](Cl)[C@@H](Cl)[C@@H](Cl)[C@H](Cl)[C@H]1Cl (stereo in doubt; form 2) [LINDANE]	HH: Evidence of human hepatotoxicity
C[C@H](CCC(=O)O)[C@H]1CC[C@H]2[C@@H]3[C@@H](O)C[C@@H]4C[C@H](O)CC[C@]4(C)[C@H]3CC[C@]12C (stereo in doubt; form 2) [URSODIOL]	WE: Weak evidence (<10 case reports) of human hepatotoxicity
ClCCCl [1,2-DICHLOROETHANE]	AH: Evidence for animal hepatotoxicity but not tested in humans
Clc1ccc(Cl)cc1 [1,4-DICHLOROBENZENE]	AH: Evidence for animal hepatotoxicity but not tested in humans
S=C=Nc1cccc2ccccc12 [1-NAPHTHYLISOTHIOCYANATE]	HH: Evidence of human hepatotoxicity
CCCC(C)(F)F [2,2-DIFLUOROPENTANE]	AH: Evidence for animal hepatotoxicity but not tested in humans
Clc1cc2c(cc1Cl)Oc1cc(Cl)c(Cl)cc1O2 [2,3,7,8-TETRACHLORODIBENZO-P-DIOXIN]	AH: Evidence for animal hepatotoxicity but not tested in humans
O=[N+]([O-])c1ccc(O)c([N+](=O)[O-])c1 [2,4-DINITROPHENOL]	AH: Evidence for animal hepatotoxicity but not tested in humans
CC(=O)Nc1ccc2c(c1)Cc1ccccc1-2 [2-ACETYLAMINOFLUORENE]	HH: Evidence of human hepatotoxicity
Cc1ccc2cc3c(ccc4ccccc43)c3c2c1CC3 [3-METHYLCHOLANTHRENE]	HH: Evidence of human hepatotoxicity
Nc1nc(NC2CC2)c2ncn([C@H]3C=C[C@@H](CO)C3)c2n1 [ABACAVIR]	HH: Evidence of human hepatotoxicity
CC(=O)CC(c1ccc([N+](=O)[O-])cc1)c1c(O)c2ccccc2oc1=O (stereo unspecified) [ACENOCOUMAROL]	HH: Evidence of human hepatotoxicity
CC(=O)Nc1ccc(O)cc1 [ACETAMINOPHEN]	HH: Evidence of human hepatotoxicity
CC(=O)Nc1nnc(S(N)(=O)=O)s1 [ACETAZOLAMIDE]	HH: Evidence of human hepatotoxicity

SMILES	Hepatotoxicity
CC(=O)c1ccc(S(=O)(=O)NC(=O)NC2CCCCC2)cc1 [ACETOHEXAMIDE]	HH: Evidence of human hepatotoxicity
CC(=O)OCC[N+](C)(C)C.[Cl-] [ACETYLCHOLINE CHLORIDE]	NE: No evidence of hepatotoxicity in any species
CC(=O)N[C@@H](CS)C(=O)O [ACETYLCYSTEINE]	NE: No evidence of hepatotoxicity in any species
COc1cc(C)c(/C=C/C(C)=C/C=C/C(C)=C/C(=O)O)c(C)c1C [ACITRETIN]	HH: Evidence of human hepatotoxicity
N[C@H](C(=O)O)[C@@H]1CC(Cl)=NO1 [ACIVICIN]	NE: No evidence of hepatotoxicity in any species
CC[C@@]1(O)C[C@H](O[C@H]2C[C@H](N(C)C)[C@H](O[C@H]3C[C@H](O)[C@H](O[C@H]4CCC(=O)[C@H](C)O4)[C@H](C)O3)[C@H](C)O2)c2c(cc3c(c2O)C(=O)c2c(O)cccc2C3=O)[C@H]1C(=O)OC.Cl [ACLARUBICIN HYDROCHLORIDE]	WE: Weak evidence (<10 case reports) of human hepatotoxicity
Nc1ncnc2c1ncn2[C@@H]1O[C@H](CO)[C@@H](O)[C@H]1O [ADENOSINE]	NE: No evidence of hepatotoxicity in any species
COc1cc2c(c3oc(=O)c4c(c13)CCC4=O)[C@@H]1C=CO[C@@H]1O2 [AFLATOXIN]	HH: Evidence of human hepatotoxicity
CCCSc1ccc2nc(NC(=O)OC)[nH]c2c1 [ALBENDAZOLE]	HH: Evidence of human hepatotoxicity
Oc1ncnc2[nH]ncc12 [ALLOPURINOL]	HH: Evidence of human hepatotoxicity
C=CCO [ALLYL ALCOHOL]	HH: Evidence of human hepatotoxicity
C=CCOC=O [ALLYL FORMATE]	HH: Evidence of human hepatotoxicity
CCCN(CCC)C(=O)Cc1c(-c2ccc(Cl)cc2)nc2ccc(Cl)cn12 [ALPIDEM]	HH: Evidence of human hepatotoxicity
Cl.NC12CC3CC(CC(C3)C1)C2 [AMANTADINE HYDROCHLORIDE]	NE: No evidence of hepatotoxicity in any species
Cl.N=C(N)NC(=O)c1nc(Cl)c(N)nc1N.O.O [AMILORIDE HYDROCHLORIDE]	NE: No evidence of hepatotoxicity in any species
Cl.O=C(O)CCCCCCNC1c2ccccc2CCc2ccccc21 [AMINEPTINE HYDROCHLORIDE]	HH: Evidence of human hepatotoxicity
Nc1ccc(C(=O)[O-])cc1.[K+] [AMINOBENZOATE POTASSIUM]	NE: No evidence of hepatotoxicity in any species
NCCCCCC(=O)O [AMINOCAPROIC ACID]	NE: No evidence of hepatotoxicity in any species
CCC1(c2ccc(N)cc2)CCC(=O)NC1=O (stereo unspecified) [AMINOGLUTETHIMIDE]	NE: No evidence of hepatotoxicity in any species
Nc1ccc(C(=O)O)c(O)c1 [AMINOSALICYLIC ACID]	HH: Evidence of human hepatotoxicity
CCCCc1oc2ccccc2c1C(=O)c1cc(I)c(OCCN(CC)CC)c(I)c1 [AMIODARONE]	HH: Evidence of human hepatotoxicity
CN(C)CCC=C1c2ccccc2CCc2ccccc21.Cl [AMITRIPTYLINE HYDROCHLORIDE]	WE: Weak evidence (<10 case reports) of human hepatotoxicity
Cl.N [AMMONIUM CHLORIDE]	NE: No evidence of hepatotoxicity in any species
